The values that follow come from paper PMC11074101 (Cell Discovery, 2024).

Holding throughout (type): cell-based
One assay has as its target T1, MCHR1 Q171(2.63)A (Homo sapiens, UniProt Q99705, Q102A).
T1 construct: expressed in transfected cells; host or cells: HEK293
As to the kind of experiment: GloSensor cAMP assay, MCHR1 Q171A. As to conditions: HEK293, mean ± S.E.M., n = 3 in triplicate. The text has this:
(§1) The gene sequences encoding human MCHR1 (residues 70‒405) and MCHR2 (residues 1‒331, with L256^6.40Y mutation) were subcloned into pFastBac vector (Invitrogen) with an N-terminal haemagglutinin signal peptide (HA) and a thermostabilized BRIL fusion, followed by a C-terminal 15-amino acid linker, a LgBiT subunit and two MBPs to facilitate receptor expression and stability. The Gαi construct was designed with dominant-negative mutations S47N, G203A, A326S, and E245A to decrease the affinity of nucleotide-binding and stable Gαβγ complex. The mini-Gαq construct was designed with the C-terminal α-helix (αH5) of Gαq, which is critical for G protein coupling selectivity. The core of the construct, known as the Ras domain, is derived from Gαs. This design choice was made to enable the binding of the nanobody Nb35, which stabilizes the complex for cryo-EM analysis. […] Rat Gβ1 was constructed with a N-terminal 16× His-tag for purification and a C-terminal HiBiT to form a NanoBiT with LgBiT. […] The wild-type and mutants of MCHR1 and MCHR2 were constructed into the pcDNA6.0 vector […] for functional assays.
(§2) GloSensor cAMP assay was used to detect the downstream Gαi signal of MCHR1 using GloSensor cAMP Reagent (Promega).

A further assay concerns the target T2, MCHR1 L172(2.64)A (Homo sapiens, UniProt Q99705, L103A).
T2 construct: expressed in transfected cells; host or cells: HEK293
As to the kind of experiment: GloSensor cAMP assay, MCHR1 L172A. As to conditions: HEK293, mean ± S.E.M., n = 3 in triplicate.
Description: as §1, §2
On the technique in general: Cyclic AMP is a second messenger, typically raised through Gs and lowered through Gi signalling.

The target of another assay is T3, MCHR1 Y341(6.51)A (Homo sapiens, UniProt Q99705, Y272A).
T3 construct: expressed in transfected cells; host or cells: HEK293
T3 sequence (Q99705 whole entry Y272A): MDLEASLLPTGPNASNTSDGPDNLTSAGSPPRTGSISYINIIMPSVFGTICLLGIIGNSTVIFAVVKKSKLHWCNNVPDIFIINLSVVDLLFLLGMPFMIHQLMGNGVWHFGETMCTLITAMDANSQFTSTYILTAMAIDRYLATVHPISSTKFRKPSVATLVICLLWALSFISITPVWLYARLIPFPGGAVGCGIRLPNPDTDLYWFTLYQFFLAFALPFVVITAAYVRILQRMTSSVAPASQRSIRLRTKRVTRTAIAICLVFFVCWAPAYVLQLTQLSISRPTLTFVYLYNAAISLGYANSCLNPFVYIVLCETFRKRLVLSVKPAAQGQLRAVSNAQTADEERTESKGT
As to the kind of experiment: GloSensor cAMP assay, MCHR1 Y341A. Particulars: HEK293, mean ± S.E.M., n = 3 in triplicate.
Description: as §1, §2

Another assay addresses T4, MCHR1 Y362(7.35)A (Homo sapiens, UniProt Q99705, Y293A).
T4 construct: expressed in transfected cells; host or cells: HEK293
The experiment in a line: GloSensor cAMP assay, MCHR1 Y362A. As to conditions: HEK293, mean ± S.E.M., n = 3 in triplicate.
Description: as §1, §2

A further assay concerns the target T5, MCHR2 W93(2.64)A (Homo sapiens, UniProt Q969V1, W93A).
T5 construct: expressed in transfected cells; host or cells: AD293
The experiment in a line: IP-One IP1 accumulation assay, MCHR2 W93A. As to conditions: n = 3 in triplicate. An excerpt: (§3) The gene sequences encoding human MCHR1 (residues 70‒405) and MCHR2 (residues 1‒331, with L256^6.40Y mutation) were subcloned into pFastBac vector (Invitrogen) with an N-terminal haemagglutinin signal peptide (HA) and a thermostabilized BRIL fusion, followed by a C-terminal 15-amino acid linker, a LgBiT subunit and two MBPs to facilitate receptor expression and stability. The Gαi construct was designed with dominant-negative mutations S47N, G203A, A326S, and E245A to decrease the affinity of nucleotide-binding and stable Gαβγ complex. The mini-Gαq construct was designed with the C-terminal α-helix (αH5) of Gαq, which is critical for G protein coupling selectivity. The core of the construct, known as the Ras domain, is derived from Gαs. This design choice was made to enable the binding of the nanobody Nb35, which stabilizes the complex for cryo-EM analysis. […]
(§4) IP1 accumulation assay was applied for the detection of the downstream Gαq signal of MCHR2 using the IP-One HTRF kit (Cisbio). […] Before measurement, the samples were incubated at RT for 30 min and measured with EnVision multi-plate reader (PerkinElmer).
(§5) Concentration–response curves were evaluated with a three-parameter logistic equation. The significance was determined with one-way ANOVA with Tukey’s test, and P < 0.05 vs wild type was considered statistically significant.

The next assay deals with T6, MCHR2 D113(3.32)A (Homo sapiens, UniProt Q969V1, D113A).
T6 construct: expressed in transfected cells; host or cells: AD293
T6 sequence (Q969V1 whole entry D113A): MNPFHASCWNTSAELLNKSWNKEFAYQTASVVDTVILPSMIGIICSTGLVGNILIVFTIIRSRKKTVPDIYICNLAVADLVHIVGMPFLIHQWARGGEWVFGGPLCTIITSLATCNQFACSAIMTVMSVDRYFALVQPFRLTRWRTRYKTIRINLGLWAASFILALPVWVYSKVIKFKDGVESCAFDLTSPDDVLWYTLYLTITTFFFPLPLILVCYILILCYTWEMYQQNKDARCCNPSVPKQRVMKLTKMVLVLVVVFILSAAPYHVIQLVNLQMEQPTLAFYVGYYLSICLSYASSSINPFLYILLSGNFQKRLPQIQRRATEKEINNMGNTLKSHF
As to the kind of experiment: IP-One IP1 accumulation assay, MCHR2 D113A. Particulars: n = 3 in triplicate.
Description: as §3, §4, §5

A further assay concerns the target T7, MCHR2 Q117(3.36)A (Homo sapiens, UniProt Q969V1, Q117A).
T7 construct: expressed in transfected cells; host or cells: AD293
The experiment in a line: IP-One IP1 accumulation assay, MCHR2 Q117A. Particulars: n = 3 in triplicate.
Description: as §3, §4, §5

The target of the next assay is T8, MCHR2 T198(5.39)A (Homo sapiens, UniProt Q969V1, T198A).
T8 construct: expressed in transfected cells; host or cells: AD293
T8 sequence (Q969V1 whole entry T198A): as the sequence (Q969V1 whole entry D113A) above, with A113D, T198A counted along it
As to the kind of experiment: IP-One IP1 accumulation assay, MCHR2 T198A. Particulars: n = 3 in triplicate.
Description: as §3, §4, §5

In another assay the target is T9, MCHR2 Y267(6.51)A (Homo sapiens, UniProt Q969V1, Y267A).
T9 construct: expressed in transfected cells; host or cells: AD293
T9 sequence (Q969V1 whole entry Y267A): as the sequence (Q969V1 whole entry D113A) above, with A113D, Y267A counted along it
The experiment in a line: IP-One IP1 accumulation assay, MCHR2 Y267A. As to conditions: n = 3 in triplicate.
Description: as §3, §4, §5

The next assay deals with T10, MCHR2 Q271(6.55)A (Homo sapiens, UniProt Q969V1, Q271A).
T10 construct: expressed in transfected cells; host or cells: AD293
T10 sequence (Q969V1 whole entry Q271A): as the sequence (Q969V1 whole entry D113A) above, with A113D, Q271A counted along it
The experiment in a line: IP-One IP1 accumulation assay, MCHR2 Q271A. Particulars: n = 3 in triplicate.
Description: as §3, §4, §5

Where [1] appears, read: AD293, IP-One HTRF, 37 °C 1 h, mean ± S.E.M., P < 0.0001 vs WT.

T7 sequence (Q969V1 whole entry Q117A): as the sequence (Q969V1 whole entry D113A) above, with A113D, Q117A counted along it
T5 sequence (Q969V1 whole entry W93A): as the sequence (Q969V1 whole entry D113A) above, with W93A, A113D counted along it
T1 sequence (Q99705 whole entry Q102A): as the sequence (Q99705 whole entry Y272A) above, with Q102A, A272Y counted along it
T4 sequence (Q99705 whole entry Y293A): as the sequence (Q99705 whole entry Y272A) above, with A272Y, Y293A counted along it
T2 sequence (Q99705 whole entry L103A): as the sequence (Q99705 whole entry Y272A) above, with L103A, A272Y counted along it

As usually defined, the Emax is the maximal effect, on the per cent scale that the assay sets. For orientation: EC50 means the concentration that produces a half-maximal response. Read a low EC50 as higher potency in that assay. For `CSCC[C@@H]1NC(=O)[C@@H](NC(=O)[C@H](CCCNC(=N)N)NC(=O)[C@H](CC(C)C)NC(=O)[C@H](CCSC)NC(=O)[C@H](CC(=O)O)NC(=O)[C@H](Cc2ccccc2)NC(=O)[C@@H](N)CC(=O)O)CSSC[C@@H](C(=O)N[C@@H](Cc2c[nH]c3ccccc23)C(=O)N[C@@H](CCC(N)=O)C(=O)N[C@H](C(=O)O)C(C)C)NC(=O)[C@@H]2CCCN2C(=O)[C@H](CCCNC(=N)N)NC(=O)[C@H](Cc2ccc(O)cc2)NC(=O)[C@H](C(C)C)NC(=O)[C@H](CCCNC(=N)N)NC(=O)CNC(=O)[C@H](CC(C)C)NC1=O` [MCH, Melanin-concentrating hormone], the maximum response (Emax) stood at 57 ± 6% on MCHR1 Q171(2.63)A; 107 ± 3% at MCHR1 L172(2.64)A; 97 ± 1% on MCHR1 Y341(6.51)A; 95% at MCHR1 Y362(7.35)A; 91 ± 1% at MCHR2 W93(2.64)A (AD293, mean ± S.E.M.); 101 ± 2% on MCHR2 D113(3.32)A (AD293, mean ± S.E.M.). Besides, the Emax on MCHR2 Q117(3.36)A (AD293, mean ± S.E.M.) was 96 ± 2%; at MCHR2 T198(5.39)A (AD293, mean ± S.E.M.), 93 ± 2%; on MCHR2 Y267(6.51)A (AD293, mean ± S.E.M.), 92 ± 1%; at MCHR2 Q271(6.55)A (AD293, mean ± S.E.M.) it was 101 ± 1%. For the same compound, the EC50 on MCHR2 W93(2.64)A (setting [1]) was 6.03 µM; on MCHR2 D113(3.32)A (setting [1]) it was 2040 nM; at MCHR2 Q117(3.36)A (AD293, IP-One HTRF, 37 °C 1 h, mean ± S.E.M., P 0.0352 vs WT) it was 10.7 nM; at MCHR2 T198(5.39)A (setting [1]) it was 69.2 nM; on MCHR2 Y267(6.51)A (setting [1]), 200 nM; on MCHR2 Q271(6.55)A (setting [1]), 27.5 nM.
